Data published in patent US11365216B2, “Antiviral immunotropic agent for the treatment of acute respiratory viral infections” (PVP LABS PTE. LTD., priority 2018, dated 2022).
Where a SMILES comes first, the peptide text is derived from it. [ ]: non-standard residue; d: D form.

Experiments:
[1] = test system: influenza A virus/Aichi/2/69 (H3N2); experiment: influenza-induced pneumonia in mice; assay type: in vivo
IL-6 = experiment: production of pro-inflammatory cytokines in peripheral blood mononuclear cell culture; assay type: cell-based, healthy donors; conditions: 5.10^−8 M, relative to control samples (100%)
Description: (§1) The effect of Dalargin on the synthesis of cytokines IL-1 (interleukin-1), IL-6 (interleukin-6) and TNF-α (tumour necrosis factor α) was evaluated in an in vitro experiment using a peripheral blood mononuclear cell culture of healthy donors (n=20). Stimulation with an enterobacterial polysaccharide was used to induce the production of pro-inflammatory cytokines.
(§2) In order to obtain a suspension of mononuclear cells, blood was diluted at a 1:2 ratio with medium 199, applied to a Ficoll-Paque density gradient, d=1.077 g/cm^3, and centrifuged at 400 g for 40 min. The white ring produced at the phase interface, which contained mononuclear cells, was carefully withdrawn with a Pasteur pipette and washed twice with medium 199 using 10-minute-long centrifugation (200 g). The precipitate was resuspended in a nutrient medium, counted in a Goryayev counting chamber and adjusted to the required concentration.
(§3) Dalargin was added at a molar concentration of 5.10^−8 M (Z0.036 μg/mL) to the test samples with the polysaccharide and mononuclear cell suspension. The drug was not added to control samples.
(§4) Cytokine quantitation in blood serum was performed using two-site ELISA.

TNF-α = experiment: as above; assay type: cell-based, healthy donors; conditions: 5.10^−8 M, relative to control samples (100%)
Description: as §1, §2, §3, §4

IL-1 = experiment: as above; assay type: cell-based, healthy donors; conditions: 5.10^−8 M, relative to control samples (100%)
Description: as §1, §2, §3, §4

[2] = test system: influenza A virus/New Caledonia/20/99 (H1N1); experiment: microbe, parasite or virus in culture; assay type: cell-based
neutrophils = experiment: phagocytic activity of peptone-mobilised neutrophils; assay type: in vivo, mice; conditions: 0.2 mg/kg single dose, IM or intranasal
Description: (§5) Dalargin is currently authorised for human use in the single dose range from 1 to 5 mg, which, if recalculated for mice, corresponds to z0.2-1 mg/kg. Therefore, the dose used for evaluating the efficacy of the drug in murine phagocytic peritoneal exudate cells was 0.2 mg/kg. Of additional interest was an investigation of possible effect of the route of administration of the drug on functional activity of the phagocytes.
(§6) The immunomodulating activity of the drug was evaluated by microscopy. The test was performed in 60 male BALB/c mice with a body weight of 18-22 g. The animals were allocated to 6 equal groups of 10 mice each. Two groups served as controls. The active therapy groups received Dalargin IM or intranasally at a single dose of 0.2 mg/kg. Macrophage and neutrophil extraction procedures were performed on the next day after administering the study drugs.
The mice were given an intraperitoneal injection of 3-4 mL of 10% peptone solution as a chemoattractant to cause neutrophil accumulation, and 2 hours later the mice were euthanised using chloroform 2 hours later. […]
(§7) The phagocytic activity of neutrophils was evaluated by the following parameters: phagocytic index and phagocyte number. Functional activity of macrophages was evaluated by microscopy, as well as by their ability to absorb nitroblue tetrazolium (NBT) in the activated state.

IFN-α = experiment: interferon-inducing effect in mice (ELISA of blood plasma); assay type: in vivo; conditions: 24 hours after administration; Dalargin 1 mg/kg, ARBIDOL intragastrically; versus control groups
Description: The experiments were performed in 40 CBA×C57BI/6/male mice with a body weight of 20-25 g. The animals were randomised in 4 groups (of 10 animals each): two active groups (receiving Dalargin or ARBIDOL) and two control groups. One control group was intended for determining baseline INF levels (before the start of the experiment), the other group was intended for determining INF levels at 24 hours after the administration of placebo (saline), ensuring the equivalence of conditions.
Dalargin was administered at a dose of 1 mg/kg, which is equivalent to a human dose of 5-6 mg. ARBIDOL was administered intragastrically as a suspension premix in 1% starch gel. Statistical analysis was performed using the Bonferroni correction for multiple testing.
IFN-α levels in the blood plasma of mice was measured at 24 hours after the administration of the drugs. Blood for interferon determination was sampled from the heart under Nembutal anaesthesia (60 mg/kg). […] IFN levels were determined using commercially available enzyme-linked immunosorbent assay (ELISA) kits manufactured by VeriKine™ (USA). […]
The test samples and diluted standards were applied to the plate in duplicate. […] The activity of bound peroxidase was measured on a UNIPLAN™ (Picon) immunoassay analyser at 450 nm.

macrophages = experiment: phagocytosis and NBT reduction of peritoneal exudate macrophages; assay type: in vivo, mice; conditions: 0.2 mg/kg single dose, IM or intranasal
Description: as §5, §6
In order to isolate macrophages, the mice were euthanised on day 3 after the peptone injection. Then 3-4 mL of medium 199 with 10% of foetal bovine serum was administered intraperitoneally, and the liquid was aspirated. […]
as §7

natural killer cells = experiment: functional (cytotoxic) activity of natural killer cells, radiometric assay with K-562 target cells; assay type: cell-based, healthy donors; conditions: 5.10^−8 M (≈0.036 μg/mL), 24 hours
Description: When evaluating the effect of Dalargin in vitro on the functional activity of NK cells, these cells were obtained from a suspension of peripheral blood mononuclear cells of healthy donors (n=20).
Functional activity of NK cells was determined on the basis of the cytotoxic reaction (NK can lyse cells of myeloblastoid and lymphoblastoid lines) using the radiometric assay. To perform it, cells of the K-562 myeloblastoid line at a concentration of 10^6/mL were incubated for one hour at 37° C. with ^3H-uridine at 3 μCi/mL of the cell suspension on day 2 after subcultivation. After the incubation, the cells were washed off the radiolabel in medium 199 three times. […]
In one case, after the effector cells and target cells were applied to the plates, Dalargin was added at a molar concentration of 5.10^−8 M (≈0.036 μg/mL). […] The plates were then incubated for 24 hours in a CO2 incubator at 37° C., whereupon the contents were transferred to fibreglass filters, washed, dried, placed in vials with a scintillation liquid, and radioactivity was determined using a β-particle counter. cytotoxicity index (CI) was determined using the formula CI=((A−B)/(C−B)). 100%, where A is radioactivity of target cells in the presence of effector cells, B is residual radioactivity after treating the target cells with Triton X-100, C is radioactivity in target cells in the absence of effector cells.

type 5 adenovirus = experiment: suppression of cytopathogenic effect of adenovirus in monolayer HeLa culture; assay type: cell-based
Description: The work was performed using type 5 adenovirus, which was procured in 1998 from the D.I. Ivanovsky Research Institute of Virology and stored in the Specialised Collection of a branch of the 48th Central Research Institute of the Ministry of Defence of Russia—Computing Centre.
A HeLa type culture (cervical carcinoma cells) with a density of 200-250 thousand/mL was used. Semisynthetic growth media based on Hank's solution containing 7.5 and 2% bovine serum respectively were used. A 48-hour monolayer culture of HeLa cells was infected with type 5 adenovirus at a dose of 0.01 TCID50 per cell. The monolayer culture was then incubated at 37±0.5° C. for 96 hours.
The antiviral activity of the product was evaluated by the suppression of the cytopathogenic effect (CPE) of the virus in the HeLa culture after the virus was applied to an established monolayer culture of HeLa cells.
Efficacy criteria of the test drug were: CPE detection rate and inhibitory constant (Ki, %). The inhibitory constant was calculated according to the following formula: Ki=100. (Cc-Ct)/Cc, where Cc and Ct is the infectious titre of the virus in the control sample and test sample respectively.

Compound: CC(C)C[C@H](NC(=O)[C@H](Cc1ccccc1)NC(=O)CNC(=O)[C@@H](C)NC(=O)[C@@H](N)Cc1ccc(O)cc1)C(=O)N[C@@H](CCCNC(=N)N)C(=O)O [Dalargin, tyrosyl-D-alanyl-glycyl-phenylalanyl-leucyl-arginine] (H-Y[dA]GFLR-OH)
- efficacy relative to Arbidol in terms of mean lifetime and survival rate ([1]; Dalargin 2 mg/kg/day IM or intranasal): greater efficacy
- mortality due to influenza-induced pneumonia ([1]; IM or intranasal 2 mg/kg/day for 5 days, relative to placebo): reduces the mortality
- weight loss ([1]; relative to control/placebo, weighed on days 3, 5 and 15): reduces weight loss
- lipopolysaccharide-induced production of IL-6 (IL-6): significant suppression
- lipopolysaccharide-induced production of TNF-α (TNF-α): significant suppression
- lipopolysaccharide-induced production of IL-1 (IL-1): significant suppression
- MIC values (MIC50, concentration inhibiting virus reproduction by 50%), comparison ([2]; MDCK tissue culture, hexapeptide versus ARBIDOL): lower MIC values
- phagocytic activity (phagocytosis) of peptone-mobilised neutrophils (neutrophils): capable of increasing the phagocytic activity
- IFN-α level in blood plasma/serum (IFN-α): significant production
- phagocytosis of peritoneal exudate macrophages, ability to reduce NBT (macrophages): stimulating effect
- effect on cytotoxic activity of natural killer cells (natural killer cells): immunotropic potential
- protective efficacy (type 5 adenovirus; 10 μg/mL): 40.0%
- growth of protective efficacy, administration 24 h before challenge relative to 2 hours after challenge (type 5 adenovirus; added to the maintenance medium): 10-20%
- protection of cells from the cytopathogenic effect of the virus (type 5 adenovirus; administered 24 h before challenge, 0.01 TCID50 per cell, concentrations of 100, 20 and 10): almost completely protected

Compound: CCOC(=O)c1c(CSc2ccccc2)n(C)c2cc(Br)c(O)c(CN(C)C)c12 [ARBIDOL, reference compound]
- inhibition at 10 µg/mL ([2]; Influenza A virus, H1N1, MDCK, concentration of 10.0 μg/mL, read-out: inhibiting effect on the reproduction of epidemic virus strains): 100%
